Results: US6274594A, “Isoquinoline derivatives and their therapeutical use” (SmithKline Beecham p.l.c., priority 1997, dated 2001)

What was measured:
[1] = system: electrically-induced seizures (maximal electroshock seizure threshold); assay: Maximal electroshock seizure (MEST) threshold test, rat model; format: in vivo; details: 2 mg/kg p.o., suspension in methyl cellulose, one hour post dosing, statistically significant
Protocol: The maximal electroshock seizure (MEST) threshold test in rodents is particularly sensitive for detecting potential anticonvulsant properties^1. In this model, anticonvulsant agents elevate the threshold to electrically-induced seizures whilst proconvulsants lower the seizure threshold.
Mice (naive male, Charles River, U.K. CD-1 strain, 25-30 g) are randomly assigned to groups of 10-20 and dosed orally or intraperitoneally at a dose volume of 10 ml/kg with various doses of compound (0.3-300 mg/kg) or vehicle. Mice are then subjected at 30 or 60 min post dose to a single electroshock (0.1 sec, 50 Hz, sine wave form) administered via corneal electrodes. The mean current and standard error required to induce a tonic seizure in 50% (CC50) of the mice in a particular treatment group is determined by the `up and down` method of Dixon and Mood (1948)^2. Statistical comparisons between vehicle- and drug-treated groups are made using the method of Litchfield and Wilcoxon (1949)^3.
The threshold for maximal (tonic hindlimb extension) electroshock seizures in male rats (Sprague Dawley, 80-150 g, 6 weeks old) was determined by a Hugo Sachs Electronik stimulator which delivered a constant current (0.3 sec duration; from 1-300 mA in steps of 5-20 mA). […]
The percentage increase or decrease in CC50 for each group compared to the control is calculated. […]

[2] = target: novel receptor obtainable from rat forebrain tissue; assay: [3H]-Compound A radioligand binding assay; details: competition with [3H]-Compound A (usually 20 nM)
Protocol: WO 92/22293 (SmithKline Beecham) discloses compounds having anti-convulsantactivity, including inter alia the compound trans-(+)-6-acetyl-4S-(4-fluorobenzoylamino)-3,4-dihydro-2,2-dimethyl-2H-1-benzopyran-3R-ol (hereinafter referred to as Compound A). […] The affinity of test compounds to the novel receptor site is assessed as follows.
Whole forebrain tissue is obtained from rats. The tissue is first homogenised in buffer (usually 50 mM Tris/HCl, pH 7.4). The homogenised tissue is washed by centrifugation and resuspension in the same buffer, then stored at -70° C. until used.
To carry out the radioligand binding assay, aliquots of tissue prepared as above (usually at a concentration of 1-2 mg protein/ml) are mixed with aliquots of [3H]-Compound A dissolved in buffer. The final concentration of [3H]-Compound A in the mixture is usually 20 nM. The mixture is incubated at room temperature for 1 hour. [3H]-Compound A bound to the tissue is then separated from unbound [3H]-Compound A by filtration through Whatman GF/B glass fibre filters. The filters are then washed rapidly with ice-cold buffer. The amount of radioactivity bound to the tissue trapped on the filters is measured by addition of liquid scintillation cocktail to the filters followed by counting in a liquid scintillation counter. […]

- pKi value [2]: greater than 8
Compound: CN1CCc2ccc(NC(=O)N3CCc4ccccc43)cc2C1 [Example 1, 2,3-Dihydroindole-1-carboxylic Acid (2-methyl-1,2,3,4-tetrahydroisoquinolin-7-yl)amide]
- increase in seizure threshold (CC50) compared to control [1]: 225%
